Assay [1] has as its system IICR (IP3 induced calcium release) in CHO cells. Kind of assay: Assay of IICR (IP3 induced calcium release)-inhibiting action. In kind it is cell-based, Chinese hamster. The conditions noted are these: CHO cells, 10 μM ATP; for inhibition at 10 µM / inhibition at 30 µM / inhibition at 100 µM: Cricetulus griseus, CHO, read-out: IICR level (percentage of inhibition). The gist of the method:
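Inhibition (%) of the intracellular calcium increase triggered by 10 μM ATP, measured in CHO cells in BSS with calcium. Compound given 1 min after the buffer exchange and 2 min before ATP; values reported per compound concentration.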

Assay [2] deals with SOCE (store operated calcium entry) in CHO cells. Kind of assay: Assay of SOCE (store operated calcium entry)-inhibiting action. In kind it is cell-based, Chinese hamster. The conditions noted are these: CHO cells, thapsigargin; for inhibition at 30 µM / inhibition at 100 µM / inhibition at 10 µM: Cricetulus griseus, CHO, read-out: SOCE level (percentage of inhibition). In outline:
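CHO cells in calcium-free BSS received compound, then 1 μM thapsigargin 2 min later to deplete stores; after 9 min, 2 mM calcium chloride (final) added. Percent inhibition of the rise in intracellular calcium determined at various compound concentrations.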

22 compounds from US8937091B2 (Japan Science and Technology Agency, priority 2009, dated 2015) can be followed below.

In the case of `CC(C)(C)N(CCC(=O)c1ccc(Cl)s1)Cc1ccccc1` [Example 280, 2-(N-t-butylbenzyl)aminoethyl-5-chloro-2-thienylketone], the inhibition at 10 µM in assay [1] (test compound 10 μmol) was determined as 50%. Moreover, the inhibition at 30 µM in assay [1] (test compound 30 μmol) stood at 60%; in assay [2] (test compound 30 μmol), 0%. Further, the results for the inhibition at 100 µM in assay [1] (test compound 100 μmol) and in assay [2] (test compound 100 μmol) were 70% and 30%, respectively.
In the case of `CC(O)CNCCC(=O)c1cnccn1` (stereo not shown) [Example 281, 2-(N-2-hydroxypropyl)aminoethyl-2-pyrazylketone], in assay [1] (test compound 10 μmol), the inhibition at 10 µM turned out to be 20%. The inhibition at 30 µM in assay [1] (test compound 30 μmol) turned out to be 20%; in assay [2] (test compound 30 μmol), 0%. Further, the inhibition at 100 µM came out at 50% in assay [1] (test compound 100 μmol) and 0% in assay [2] (test compound 100 μmol).
With `O=C(CCN1CCCC1CO)c1cnccn1` (stereo not shown) [Example 282, 2-(2-hydroxymethylpyrrolidino)ethyl-2-pyrazylketone], the inhibition at 10 µM in assay [1] (test compound 10 μmol) was found to be 0%. Moreover, the inhibition at 30 µM worked out at 20% in assay [1] (test compound 30 μmol) and 0% in assay [2] (test compound 30 μmol). Besides, the inhibition at 100 µM is 50% in assay [1] (test compound 100 μmol) and 0% in assay [2] (test compound 100 μmol).
`CC(C)N(CCC(=O)c1cc2ccccc2s1)Cc1ccccc1` [Example 283, 2-(N-isopropylbenzyl)aminoethyl-2-benzothienylketone]: the inhibition at 10 µM in assay [1] (test compound 10 μmol) was found to be 50%. Also, the inhibition at 30 µM in assay [1] (test compound 30 μmol) was determined as 80%; in assay [2] (test compound 30 μmol), 0%. Besides, the inhibition at 100 µM was 50% in assay [1] (test compound 100 μmol) and 40% in assay [2] (test compound 100 μmol).
As for `CC(C)N(CCO)CCC(=O)c1cc2ccccc2s1` [Example 284, 2-(N-isopropyl-2-hydroxyethyl)aminoethyl-2-benzothienylketone], the inhibition at 10 µM in assay [1] (test compound 10 μmol) was determined as 0%. Further, the inhibition at 30 µM in assay [1] (test compound 30 μmol) and in assay [2] (test compound 30 μmol) was 0% each time. For the same compound, the inhibition at 100 µM in assay [1] (test compound 100 μmol) was found to be 40%; in assay [2] (test compound 100 μmol), 0%.
Turning to `CC(C)(C)N(CCC(=O)c1cc2ccccc2s1)Cc1ccccc1` [Example 285, 2-(N-t-butylbenzyl)aminoethyl-2-benzothienylketone], the inhibition at 10 µM in assay [1] (test compound 10 μmol) came out at 50%. The inhibition at 30 µM in assay [1] (test compound 30 μmol) is 80%; in assay [2] (test compound 30 μmol), 0%. The inhibition at 100 µM in assay [1] (test compound 100 μmol) came to 60%; in assay [2] (test compound 100 μmol) it was 50%.
`CCN(CCC(=O)c1nccs1)Cc1ccccc1` [Example 289, 2-(N-ethylbenzyl)aminoethyl-2-thiazolylketone]: the inhibition at 10 µM in assay [1] (test compound 10 μmol) is 40%. The inhibition at 30 µM in assay [1] (test compound 30 μmol) came out at 80%; in assay [2] (test compound 30 μmol) it was 0%. Also, the inhibition at 100 µM was 100% in assay [1] (test compound 100 μmol) and 10% in assay [2] (test compound 100 μmol).
As for `O=C(CCN(CCO)Cc1ccccc1)c1nccs1` [Example 290, 2-(N-2-hydroxyethylbenzyl)aminoethyl-2-thiazolylketone], the inhibition at 10 µM in assay [1] (test compound 10 μmol) came to 40%. Also, the values for the inhibition at 30 µM in assay [1] (test compound 30 μmol) and in assay [2] (test compound 30 μmol) were 60% and 0%, respectively. For the same compound, the values for the inhibition at 100 µM in assay [1] (test compound 100 μmol) and in assay [2] (test compound 100 μmol) were 90% and 0%, respectively.
For the compound `CN(CCO)CCC(=O)c1nccs1` [Example 291, 2-(N-2-hydroxyethylmethyl)aminoethyl-2-thiazolylketone], the inhibition at 10 µM in assay [1] (test compound 10 μmol) was determined as 40%; in assay [2] (test compound 10 μmol), 0%. In addition, the inhibition at 30 µM in assay [1] (test compound 30 μmol) was 70%; in assay [2] (test compound 30 μmol) it was 0%. In addition, the inhibition at 100 µM amounted to 100% in assay [1] (test compound 100 μmol) and 0% in assay [2] (test compound 100 μmol).
Turning to `CC(C)N(CCC(=O)c1ccc(Br)s1)Cc1ccccc1` [Example 292, 2-(N-isopropylbenzyl)aminoethyl-5-bromo-2-thienylketone], the inhibition at 10 µM in assay [1] (test compound 10 μmol) was 50%; in assay [2] (test compound 10 μmol), 0%. The inhibition at 30 µM in assay [1] (test compound 30 μmol) came out at 80%; in assay [2] (test compound 30 μmol) it was 20%. Besides, the inhibition at 100 µM worked out at 90% in assay [1] (test compound 100 μmol) and 40% in assay [2] (test compound 100 μmol).
`CCCCN(CCO)CCC(=O)c1ccc(Br)s1` [Example 293, 2-(N-2-hydroxyethylbutyl)aminoethyl-5-bromo-2-thienylketone]: the inhibition at 10 µM in assay [1] (test compound 10 μmol) was determined as 80%; in assay [2] (test compound 10 μmol), 0%. For the same compound, the values for the inhibition at 30 µM in assay [1] (test compound 30 μmol) and in assay [2] (test compound 30 μmol) were 50% and 0%, respectively. For the same compound, the inhibition at 100 µM in assay [1] (test compound 100 μmol) was found to be 90%; in assay [2] (test compound 100 μmol), 10%.
As for `CC(C)(C)N(CCO)CCC(=O)c1ccc(Br)s1` [Example 294, 2-(N-2-hydroxyethyl-t-butyl)aminoethyl-5-bromo-2-thienylketone], the inhibition at 100 µM in assay [1] (test compound 100 μmol) turned out to be 50%; in assay [2] (test compound 100 μmol), 10%. The “IICR level (percentage of inhibition)” value turned out to be 70% in assay [1] (test compound 10 μmol) and 40% in assay [1] (test compound 30 μmol). Also, the inhibition at 10 µM in assay [2] (test compound 10 μmol) stood at 0%.
In the case of `CC(C)N(CCC(=O)n1nnc2ccccc21)Cc1ccccc1` [Example 295, 2-(N-isopropylbenzyl)aminoethyl-1-benzotriazoketone], the results for the inhibition at 10 µM in assay [1] (test compound 10 μmol) and in assay [2] (test compound 10 μmol) were 80% and 0%, respectively. The inhibition at 30 µM in assay [1] (test compound 30 μmol) was 70%; in assay [2] (test compound 30 μmol), 0%. In addition, the inhibition at 100 µM in assay [1] (test compound 100 μmol) was 60%; in assay [2] (test compound 100 μmol), 0%.
On to `O=C(CCN(CCO)CCO)n1nnc2ccccc21` [Example 296, 2-bis(N-2-hydroxyethyl)aminoethyl-1-benzotriazoketone], for which the inhibition at 10 µM in assay [1] (test compound 10 μmol) and in assay [2] (test compound 10 μmol) was 0% each time. The inhibition at 30 µM in assay [1] (test compound 30 μmol) amounted to 50%; in assay [2] (test compound 30 μmol), 0%. The inhibition at 100 µM in assay [1] (test compound 100 μmol) was 60%; in assay [2] (test compound 100 μmol), 20%.
On to `CC(C)N(CCC(=O)c1ccc(-c2ccccc2)cc1)Cc1ccccc1` [Example 297, 2-(N-isopropylbenzyl)aminoethyl-4-biphenylketone], for which the values for the inhibition at 10 µM in assay [1] (test compound 10 μmol) and in assay [2] (test compound 10 μmol) were 50% and 20%, respectively. The inhibition at 30 µM in assay [1] (test compound 30 μmol) and in assay [2] (test compound 30 μmol) was 50% in each case. Moreover, the inhibition at 100 µM in assay [1] (test compound 100 μmol) came out at 90%; in assay [2] (test compound 100 μmol), 60%.
Consider `CC(C)N(CCO)CCC(=O)c1ccc(-c2ccccc2)cc1` [Example 298, 2-(N-2-hydroxyethylisopropyl)aminoethyl-4-biphenylketone], for which the inhibition at 10 µM is 60% in assay [1] (test compound 10 μmol) and 20% in assay [2] (test compound 10 μmol). For the same compound, the inhibition at 30 µM turned out to be 50% in assay [1] (test compound 30 μmol) and 40% in assay [2] (test compound 30 μmol). In addition, the inhibition at 100 µM in assay [1] (test compound 100 μmol) was found to be 60%; in assay [2] (test compound 100 μmol) it was 50%.
For `O=C(CCN(CCO)c1ccccc1)c1ccc(-c2ccccc2)cc1` [Example 299, 2-(N-2-hydroxyethylphenyl)aminoethyl-4-biphenylketone], the inhibition at 10 µM was determined as 70% in assay [1] (test compound 10 μmol) and 20% in assay [2] (test compound 10 μmol). For the same compound, the inhibition at 30 µM in assay [1] (test compound 30 μmol) was 30%; in assay [2] (test compound 30 μmol) it was 40%. The inhibition at 100 µM was 30% in assay [1] (test compound 100 μmol) and 40% in assay [2] (test compound 100 μmol).
As for `O=C(CCNCCc1ccccc1)c1ccco1` [Example 300, 2-(N-phenethyl)aminoethyl-2-furylketone], the inhibition at 10 µM in assay [1] (test compound 10 μmol) came out at 30%. Also, the values for the inhibition at 30 µM in assay [1] (test compound 30 μmol) and in assay [2] (test compound 30 μmol) were 0% and 20%, respectively. The inhibition at 100 µM came out at 10% in assay [1] (test compound 100 μmol) and 40% in assay [2] (test compound 100 μmol).
For the compound `CCN(CCC(=O)c1ccc(Br)s1)Cc1ccccc1` [Example 301, 2-(N-ethylbenzyl)aminoethyl-5-bromo-2-thienylketone], the inhibition at 10 µM stood at 70% in assay [1] (test compound 10 μmol) and 20% in assay [2] (test compound 10 μmol). In addition, the inhibition at 30 µM in assay [1] (test compound 30 μmol) is 70%; in assay [2] (test compound 30 μmol) it was 30%. For the same compound, the inhibition at 100 µM worked out at 90% in assay [1] (test compound 100 μmol) and 40% in assay [2] (test compound 100 μmol).
For the compound `CC(C)(C)N(CCC(=O)c1ccc(C#N)cc1)Cc1ccccc1` [Example 302, 2-(N-t-butylbenzyl)aminoethyl-4-cyanophenylketone], the results for the inhibition at 30 µM in assay [1] (test compound 30 μmol) and in assay [2] (test compound 30 μmol) were 90% and 0%, respectively. Moreover, the “IICR level (percentage of inhibition)” value in assay [1] (test compound 10 μmol) came to 60%. Moreover, in assay [2] (test compound 10 μmol), the inhibition at 10 µM was 0%. In addition, the inhibition at 100 µM in assay [2] (test compound 100 μmol) is 20%.
Consider `Cc1ccc(C(=O)CCN(Cc2ccccc2)C(C)(C)C)cc1` [Example 303, 4-tolyl(N-benzyl-N-t-butyl)aminoethylketone], for which the inhibition at 10 µM was 20% in assay [1] (test compound 10 μmol) and 0% in assay [2] (test compound 10 μmol). The inhibition at 30 µM came out at 20% in assay [1] (test compound 30 μmol) and 0% in assay [2] (test compound 30 μmol). Further, the inhibition at 100 µM in assay [1] (test compound 100 μmol) stood at 40%; in assay [2] (test compound 100 μmol) it was 0%.
Turning to `CC(C)(C)N(CCC(=O)c1ccc(C#N)cc1)Cc1ccccc1` [Example 304, 4-cyanophenyl(N-benzyl-N-t-butyl)aminoethylketone], the results for the “IICR level (percentage of inhibition)” value in assay [1] (test compound 10 μmol), in assay [1] (test compound 30 μmol) and in assay [1] (test compound 100 μmol) were 90%, 100% and 20%, respectively. Besides, the “SOCE level (percentage of inhibition)” value in assay [2] (test compound 10 μmol) worked out at 0%; in assay [2] (test compound 30 μmol), 0%; in assay [2] (test compound 100 μmol), 10%.
